PubChem BioAssay (NCI)
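GI50 = concentration required for 50% inhibition of growth. TGI denotes the concentration required for complete inhibition of growth.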

Legend:
Experiment in all cases: DTP human tumour cell line panel, 384-well format
SK-MEL-5 melanoma = test system: SK-MEL-5 melanoma
COLO 205 colon = test system: COLO 205 colon
HCT-116 colon = test system: HCT-116 colon
OVCAR-3 ovarian = test system: OVCAR-3 ovarian
MDA-MB-231 breast = test system: MDA-MB-231 breast
SR leukemia = test system: SR leukemia
CAKI-1 renal = test system: CAKI-1 renal
SF-539 CNS = test system: SF-539 CNS
KM12 colon = test system: KM12 colon
NCI-H322M lung = test system: NCI-H322M lung
HS 578T breast = test system: HS 578T breast
RPMI-8226 leukemia = test system: RPMI-8226 leukemia
DU-145 prostate = test system: DU-145 prostate
786-0 renal = test system: 786-0 renal
ACHN renal = test system: ACHN renal
SN12C renal = test system: SN12C renal
MOLT-4 leukemia = test system: MOLT-4 leukemia
MDA-MB-435 melanoma = test system: MDA-MB-435 melanoma
PC-3 prostate = test system: PC-3 prostate
UO-31 renal = test system: UO-31 renal
MALME-3M melanoma = test system: MALME-3M melanoma
MDA-MB-468 breast = test system: MDA-MB-468 breast
T-47D breast = test system: T-47D breast
K-562 leukemia = test system: K-562 leukemia
SNB-19 CNS = test system: SNB-19 CNS
SNB-75 CNS = test system: SNB-75 CNS
NCI-H522 lung = test system: NCI-H522 lung
NCI-H460 NSCLC = test system: NCI-H460 NSCLC
RXF 393 renal = test system: RXF 393 renal
NCI/ADR-RES ovarian = test system: NCI/ADR-RES ovarian
HOP-62 NSCLC = test system: HOP-62 NSCLC
SK-OV-3 ovarian = test system: SK-OV-3 ovarian
SK-MEL-28 melanoma = test system: SK-MEL-28 melanoma
SF-268 CNS = test system: SF-268 CNS
OVCAR-4 ovarian = test system: OVCAR-4 ovarian
SF-295 CNS = test system: SF-295 CNS
SK-MEL-2 melanoma = test system: SK-MEL-2 melanoma
BT-549 breast = test system: BT-549 breast
A549 NSCLC = test system: A549 NSCLC
A498 renal = test system: A498 renal
HL-60(TB) leukemia = test system: HL-60(TB) leukemia
LOX IMVI melanoma = test system: LOX IMVI melanoma
UACC-257 melanoma = test system: UACC-257 melanoma
OVCAR-5 ovarian = test system: OVCAR-5 ovarian
HCT-15 colon = test system: HCT-15 colon
HCC-2998 colon = test system: HCC-2998 colon
CCRF-CEM leukemia = test system: CCRF-CEM leukemia
UACC-62 melanoma = test system: UACC-62 melanoma
NCI-H226 lung = test system: NCI-H226 lung
EKVX NSCLC = test system: EKVX NSCLC
NCI-H23 lung = test system: NCI-H23 lung
OVCAR-8 ovarian = test system: OVCAR-8 ovarian
IGROV1 ovarian = test system: IGROV1 ovarian
SW-620 colon = test system: SW-620 colon
HOP-92 NSCLC = test system: HOP-92 NSCLC
TK-10 renal = test system: TK-10 renal
M14 melanoma = test system: M14 melanoma
U251 glioblastoma = test system: U251 glioblastoma

Compound: CC[C@@]1(O)C(=O)OCc2c1cc1n(c2=O)Cc2c-1nc1cc(F)c(C)c3c1c2[C@@H](NC(=O)CO)CC3
- GI50 (SK-MEL-5 melanoma): < 10 nM
- TGI (SK-MEL-5 melanoma): 16.4 nM
- GI50 (COLO 205 colon): < 10 nM
- TGI (COLO 205 colon): 537 nM
- GI50 (HCT-116 colon): < 10 nM
- TGI (HCT-116 colon): 159 nM
- GI50 (OVCAR-3 ovarian): < 10 nM
- TGI (OVCAR-3 ovarian): 38.4 nM
- GI50 (MDA-MB-231 breast): 99.6 nM
- TGI (MDA-MB-231 breast): 1520 nM
- GI50 (SR leukemia): < 10 nM
- TGI (SR leukemia): < 10 nM
- GI50 (CAKI-1 renal): < 10 nM
- TGI (CAKI-1 renal): 103 nM
- GI50 (SF-539 CNS): < 10 nM
- TGI (SF-539 CNS): 15.6 nM
- GI50 (KM12 colon): 11.6 nM
- TGI (KM12 colon): 149 nM
- GI50 (NCI-H322M lung): 54.2 nM
- TGI (NCI-H322M lung): 684 nM
- GI50 (HS 578T breast): < 10 nM
- TGI (HS 578T breast): 2360 nM
- GI50 (RPMI-8226 leukemia): < 10 nM
- TGI (RPMI-8226 leukemia): 20.6 nM
- GI50 (DU-145 prostate): < 10 nM
- TGI (DU-145 prostate): < 10 nM
- GI50 ([…]-0 renal): < 10 nM
- TGI (786-0 renal): 10.1 nM
- GI50 (ACHN renal): < 10 nM
- TGI (ACHN renal): 11.1 nM
- GI50 (SN12C renal): < 10 nM
- TGI (SN12C renal): < 10 nM
- GI50 (MOLT-4 leukemia): < 10 nM
- TGI (MOLT-4 leukemia): < 10 nM
- GI50 (MDA-MB-435 melanoma): 24.3 nM
- TGI (MDA-MB-435 melanoma): 467 nM
- GI50 (PC-3 prostate): 97.3 nM
- TGI (PC-3 prostate): 3880 nM
- GI50 (UO-31 renal): 20.6 nM
- TGI (UO-31 renal): 116 nM
- GI50 (MALME-3M melanoma): < 10 nM
- TGI (MALME-3M melanoma): 237 nM
- GI50 (MDA-MB-468 breast): < 10 nM
- TGI (MDA-MB-468 breast): < 10 nM
- GI50 (T-47D breast): < 10 nM
- TGI (T-47D breast): 101 nM
- GI50 (K-562 leukemia): < 10 nM
- TGI (K-562 leukemia): 171 nM
- GI50 (SNB-19 CNS): < 10 nM
- TGI (SNB-19 CNS): 12.7 nM
- GI50 (SNB-75 CNS): < 10 nM
- TGI (SNB-75 CNS): 10.8 nM
- GI50 (NCI-H522 lung): < 10 nM
- TGI (NCI-H522 lung): 19 nM
- GI50 (NCI-H460 NSCLC): < 10 nM
- TGI (NCI-H460 NSCLC): 23.4 nM
- GI50 (RXF 393 renal): < 10 nM
- TGI (RXF 393 renal): < 10 nM
- GI50 (NCI/ADR-RES ovarian): 53.6 nM
- TGI (NCI/ADR-RES ovarian): 256 nM
- GI50 (HOP-62 NSCLC): < 10 nM
- TGI (HOP-62 NSCLC): < 10 nM
- GI50 (SK-OV-3 ovarian): < 10 nM
- TGI (SK-OV-3 ovarian): 28.1 nM
- GI50 (SK-MEL-28 melanoma): < 10 nM
- TGI (SK-MEL-28 melanoma): 270 nM
- GI50 (SF-268 CNS): < 10 nM
- TGI (SF-268 CNS): < 10 nM
- GI50 (OVCAR-4 ovarian): 131 nM
- TGI (OVCAR-4 ovarian): 419 nM
- GI50 (SF-295 CNS): < 10 nM
- TGI (SF-295 CNS): < 10 nM
- GI50 (SK-MEL-2 melanoma): 33.1 nM
- TGI (SK-MEL-2 melanoma): 105 nM
- GI50 (BT-549 breast): < 10 nM
- TGI (BT-549 breast): 40.2 nM
- GI50 (A549 NSCLC): 49.8 nM
- TGI (A549 NSCLC): 944 nM
- GI50 (A498 renal): < 10 nM
- TGI (A498 renal): 142 nM
- GI50 (HL-60(TB) leukemia): < 10 nM
- TGI (HL-60(TB) leukemia): < 10 nM
- GI50 (LOX IMVI melanoma): < 10 nM
- TGI (LOX IMVI melanoma): 37.5 nM
- GI50 (UACC-257 melanoma): 19.4 nM
- TGI (UACC-257 melanoma): 226 nM
- GI50 (OVCAR-5 ovarian): 35.2 nM
- TGI (OVCAR-5 ovarian): 268 nM
- GI50 (HCT-15 colon): 17.5 nM
- TGI (HCT-15 colon): 1180 nM
- GI50 (HCC-2998 colon): 15.6 nM
- TGI (HCC-2998 colon): 212 nM
- GI50 (CCRF-CEM leukemia): < 10 nM
- TGI (CCRF-CEM leukemia): < 10 nM
- GI50 (UACC-62 melanoma): < 10 nM
- TGI (UACC-62 melanoma): < 10 nM
- GI50 (NCI-H226 lung): < 10 nM
- TGI (NCI-H226 lung): 49.6 nM
- GI50 (EKVX NSCLC): 42.9 nM
- TGI (EKVX NSCLC): 2650 nM
- GI50 (NCI-H23 lung): < 10 nM
- TGI (NCI-H23 lung): < 10 nM
- GI50 (OVCAR-8 ovarian): < 10 nM
- TGI (OVCAR-8 ovarian): 104 nM
- GI50 (IGROV1 ovarian): 12.8 nM
- TGI (IGROV1 ovarian): 1140 nM
- GI50 (SW-620 colon): < 10 nM
- TGI (SW-620 colon): 223 nM
- GI50 (HOP-92 NSCLC): < 10 nM
- TGI (HOP-92 NSCLC): 58.9 nM
- GI50 (TK-10 renal): 47.6 nM
- TGI (TK-10 renal): 1660 nM
- GI50 (M14 melanoma): < 10 nM
- TGI (M14 melanoma): 12.8 nM
- GI50 (U251 glioblastoma): < 10 nM
- TGI (U251 glioblastoma): 13.6 nM
